Measured values taken from paper PMC9862096, “Interaction of a Homologous Series of Amphiphiles with P-glycoprotein in a Membrane Environment—Contributions of Polar and Non-Polar Interactions” (Pharmaceutics, 2023).
Like-named read-outs stand apart in the source and are kept apart here.

How the values were obtained:
mouse P–gp (mP–gp) = target: T1, mouse P–gp (mP–gp) (Mus musculus, UniProt P21447); test: P–gp ATPase activity (vanadate-sensitive, end point Pi release) in native membranes; type: biochemical
T1 construct: made in house; host or cells: High-Five insect cells (Invitrogen), recombinant baculovirus; total membrane vesicles
Experimental: High-Five insect cells (Invitrogen) were infected with recombinant baculovirus carrying mouse P–gp (mP–gp) gene (Abcb1a). Membrane vesicles were prepared by hypotonic lysis of the insect cells, followed by ultracentrifugation to collect the membrane vesicles, as described in detail in reference. The native membranes obtained were suspended in storage buffer (45 mM Tris-HCl pH 7.5, 45 mM D-mannitol, 1.8 mM EGTA, 0.45% v/v aprotinin, 1.8 mM DTT, 0.9 mM AEBSF, and 10% v/v glycerol), aliquoted, and stored at −80 °C or in liquid nitrogen until use. The concentration of protein in the native membranes was quantified by the Sherman and Weismann method using Amido Black B dye.
The ATPase activity of P–gp in the High-Five insect cell membranes was measured by the end point Pi release assays, as described earlier with minor modifications. Native membranes were diluted in ATPase assay buffer (final concentrations: 41.2 mM Tris-MES pH = 6.8, 50 mM KCl, 5 mM NaN3, 2 mM EGTA, 1.03 mM Ouabain, 2 mM DTT, and 10 mM MgCl2), and the modulators were added from stocks in DMSO (final DMSO 1% v/v). The final concentration of protein was quantified, being ca. 0.1 mg/mL. Four samples were prepared at each modulator concentration, containing ATP at 5 mM, two of which also contained vanadate at 0.3 mM. P–gp specific activity was measured as vanadate-sensitive ATPase activity. The basal rate of ATP hydrolysis was 67 ± 4 nmol Pi mgP^−1 min^−1, with 37 ± 4 nmol Pi mgP^−1 min^−1 being sensitive to vanadate. The results obtained for the effect of the modulators on the ATPase activity in the presence and absence of vanadate are shown in the Supplementary Information (Figure S1).
The results were then analyzed with the formalism derived in this manuscript considering the distribution of the modulator in the distinct environments (aqueous phase, lipid bilayer and P-gp) and several equal and independent binding sites in P-gp’s binding pocket, Equations (3)–(9). The best fit was obtained with nonlinear least-square analysis using Microsoft Excel.
For the correct analysis of the results, the distribution of the amphiphiles in the distinct environments (aqueous media, lipid bilayer, and P–gp) must be considered. In addition, excess ligand should not be assumed. When considering that P–gp has several binding sites, the kinetic scheme that describes P–gp saturation with ligand is given by Equation (5). For details, see, e.g., references. (5) LW↔KPW→LbLLb LLb=KPW→LbLW VLb/VWLW+P↔β1PL1 PL1=β1PLWi LW+P↔βiPLi PLi=βiPLW^i n LW+P↔βnPLn PLn=βnPLW^n
The overall ATPase activity at each ligand concentration is calculated from the concentration of each protein species PLi and the corresponding ATPase activity Vi , (9) V=V0+∑i=1nPLi Vi
This formalism was used to describe the effect of the NBD amphiphiles on P–gp’s ATPase activity, considering a distinct ATPase activity for P–gp with a different number of amphiphile molecules in the binding pocket.

[1] = cited from earlier work

T1 sequence (P21447 whole entry): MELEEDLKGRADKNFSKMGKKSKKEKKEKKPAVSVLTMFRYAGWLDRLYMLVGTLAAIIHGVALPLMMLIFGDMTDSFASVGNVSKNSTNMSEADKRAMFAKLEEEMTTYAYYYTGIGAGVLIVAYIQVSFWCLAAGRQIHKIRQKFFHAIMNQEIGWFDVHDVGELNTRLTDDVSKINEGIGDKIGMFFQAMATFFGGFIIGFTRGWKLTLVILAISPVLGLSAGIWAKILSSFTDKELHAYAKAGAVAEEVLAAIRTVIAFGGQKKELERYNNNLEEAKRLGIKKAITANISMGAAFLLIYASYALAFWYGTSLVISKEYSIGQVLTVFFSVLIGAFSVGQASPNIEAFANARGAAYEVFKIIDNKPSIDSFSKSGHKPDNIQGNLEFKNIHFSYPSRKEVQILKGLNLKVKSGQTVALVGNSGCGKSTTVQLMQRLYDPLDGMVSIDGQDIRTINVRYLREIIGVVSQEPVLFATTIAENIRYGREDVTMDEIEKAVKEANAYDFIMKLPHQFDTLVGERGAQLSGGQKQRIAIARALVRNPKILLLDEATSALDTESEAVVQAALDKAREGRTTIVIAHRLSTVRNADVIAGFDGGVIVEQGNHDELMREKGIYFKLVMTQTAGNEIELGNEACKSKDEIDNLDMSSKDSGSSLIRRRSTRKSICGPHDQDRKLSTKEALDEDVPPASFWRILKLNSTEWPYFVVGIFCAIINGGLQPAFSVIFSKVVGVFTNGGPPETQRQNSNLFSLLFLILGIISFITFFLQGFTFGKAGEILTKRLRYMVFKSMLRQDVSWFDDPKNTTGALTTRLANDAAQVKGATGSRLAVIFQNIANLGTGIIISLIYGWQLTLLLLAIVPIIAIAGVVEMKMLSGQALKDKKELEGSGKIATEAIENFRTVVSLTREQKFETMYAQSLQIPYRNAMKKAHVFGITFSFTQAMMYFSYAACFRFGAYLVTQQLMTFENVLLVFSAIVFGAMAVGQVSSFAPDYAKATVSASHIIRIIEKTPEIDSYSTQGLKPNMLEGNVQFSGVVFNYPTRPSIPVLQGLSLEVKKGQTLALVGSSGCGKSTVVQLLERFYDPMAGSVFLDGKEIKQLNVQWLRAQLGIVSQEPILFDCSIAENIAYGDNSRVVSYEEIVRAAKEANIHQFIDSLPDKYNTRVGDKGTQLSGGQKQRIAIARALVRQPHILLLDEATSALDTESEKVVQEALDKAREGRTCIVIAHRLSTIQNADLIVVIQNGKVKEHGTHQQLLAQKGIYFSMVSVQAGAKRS

CCCCNc1ccc([N+](=O)[O-])c2nonc12 [NBD–C4]
Kd (mouse P–gp (mP–gp); Equation (9), local concentrations, n = 1 binding sites, read-out: Kd, microscopic dissociation constant): 75 µM
Kd (mouse P–gp (mP–gp); Equation (9), local concentrations, n = 2 binding sites, read-out: Kd, microscopic dissociation constant): 18 µM
Kd (mouse P–gp (mP–gp); Equation (9), local concentrations, n = 3 binding sites, read-out: Kd, microscopic dissociation constant): 11 µM
Kd (mouse P–gp (mP–gp); Equation (9), local concentrations, n = 4 binding sites, read-out: Kd, microscopic dissociation constant): 7 µM
Kd (mouse P–gp (mP–gp); Equation (9), local concentrations, n = 5 binding sites, read-out: Kd, microscopic dissociation constant): 9 µM
V1, ATPase activity of P–gp with 1 amphiphile bound (mouse P–gp (mP–gp); Equation (9), n = 1): 703%
V1, ATPase activity of P–gp with 1 amphiphile bound (mouse P–gp (mP–gp); Equation (9), n = 2): 100%
V2, ATPase activity of P–gp with 2 amphiphiles bound (mouse P–gp (mP–gp); Equation (9), n = 2): 535%
V1, ATPase activity of P–gp with 1 amphiphile bound (mouse P–gp (mP–gp); Equation (9), n = 3): 109%
V2, ATPase activity of P–gp with 2 amphiphiles bound (mouse P–gp (mP–gp); Equation (9), n = 3): 109%
V3, ATPase activity of P–gp with 3 amphiphiles bound (mouse P–gp (mP–gp); Equation (9), n = 3): 512%
Kd (mouse P–gp (mP–gp); Equation (9), n = 3, read-out: β1, macroscopic binding constant of the first ligand (converted)): 3.57 µM
V1, ATPase activity of P–gp with 1 amphiphile bound (mouse P–gp (mP–gp); Equation (9), n = 4): 110%
V2, ATPase activity of P–gp with 2 amphiphiles bound (mouse P–gp (mP–gp); Equation (9), n = 4): 110%
V3, ATPase activity of P–gp with 3 amphiphiles bound (mouse P–gp (mP–gp); Equation (9), n = 4): 110%
V4, ATPase activity of P–gp with 4 amphiphiles bound (mouse P–gp (mP–gp); Equation (9), n = 4): 501%
Kd (mouse P–gp (mP–gp); Equation (9), n = 4, read-out: β1, macroscopic binding constant of the first ligand (converted)): 1.85 µM
V1, ATPase activity of P–gp with 1 amphiphile bound (mouse P–gp (mP–gp); Equation (9), n = 5): 110%
V2, ATPase activity of P–gp with 2 amphiphiles bound (mouse P–gp (mP–gp); Equation (9), n = 5): 110%
V3, ATPase activity of P–gp with 3 amphiphiles bound (mouse P–gp (mP–gp); Equation (9), n = 5): 110%
V4, ATPase activity of P–gp with 4 amphiphiles bound (mouse P–gp (mP–gp); Equation (9), n = 5): 259%
V5, ATPase activity of P–gp with 5 amphiphiles bound (mouse P–gp (mP–gp); Equation (9), n = 5): 491%
Kd (mouse P–gp (mP–gp); Equation (9), n = 5, read-out: β1, macroscopic binding constant of the first ligand (converted)): 1.82 µM
K2, dissociation constant for P–gp inhibition (mouse P–gp (mP–gp); Equation (S1), total modulator concentration, constraint K1≤K2 for NBD–C8 and NBD–LysoMPE, [75% confidence interval]): outside the concentration range studied
Kd (mouse P–gp (mP–gp); Equation (S1), total modulator concentration, constraint K1≤K2 for NBD–C8 and NBD–LysoMPE, [75% confidence interval], read-out: K2, dissociation constant for P–gp inhibition): > 60 µM
Emax (mouse P–gp (mP–gp); Equation (S1), only activation for NBD–C4, constraint K1≤K2 for NBD–C8 and NBD–LysoMPE, [75% confidence interval], read-out: V1, maximum activation): 734%
Effect on P–gp ATPase activity (mouse P–gp (mP–gp); native membranes, Figure 1): activation
LogKP, association with POPC bilayers [1]: 2.99
